This is an account of results in patent publication US7598244B2, “[1,2,4]triazolo[1,5,a]pyrimidin-2-ylurea derivative and use thereof” (Nippon Kayaku Kabushiki Kaisha, priority 2003, dated 2009).

This experiment deals with MHC class I molecules of T1 cells (human lymphoma cell line 174×CEM.). Kind of experiment: Effect on expression of MHC class I from T1 cells (flow cytometry, MFI). The experiment is classed as cell-based. The note with it: 3 days culture. The protocol:
Effect on Expression of MHC Class I from T1 Cells (Human Lymphoma Cell Line 174×CEM.)
Using a 96-well flat bottom microplate, T1 cells (5.7×10^3 cells/200 μl/well) were cultured in an RPMI 1640 medium (Iwaki Glass) containing 10% fetal bovine serum (hereinafter abbreviated as FBS; Iruvine Scientific) in an incubator containing 5% carbon dioxide at 37° C. for 3 days, in the presence of a test compound having each concentration obtained by dilution at a common ratio route of 10 from 400 μM. After completion of the culture, the cells were stained with fluoroisothiocyanate-labeled mouse anti-human MHC class I monoclonal antibody (an antibody produced from the cell line W6/32 (ATCC No. CRL 1991)). The mean fluorescence intensity of the stained cells (hereinafter referred to as MFI) was measured using flow cytometry FACScan (BD). The obtained value was defined as an expression level of MHC class I molecules. A test compound concentration necessary for suppressing 20% of the expression level of MHC class I molecules (EC20 value) was calculated using the following formula (1).
[formula] • Eexp: MFI of cultured cells containing test compound after being stained with antibody • Cexp: MFI of cultured cells containing no test compounds after being stained with antibody
(A flow cytometer gives signals particle by particle.)

For the compound `COc1cc(C(C)NC(=O)Nc2nc3nccc(-c4cccs4)n3n2)cc(OC)c1OC` (stereo not shown) [Example 294], the “EC20 (concentration necessary for suppressing 20% of the expression level of MHC class I molecules)” value was determined as 70 nM.

On to `COc1ccc(-c2ccnc3nc(NC(=O)N[C@@H](C)C(=O)NCC4CCCCC4)nn23)cc1` [Example 121], for which the “EC20 (concentration necessary for suppressing 20% of the expression level of MHC class I molecules)” value is 170 nM.

On to `COc1ccc(-c2ccnc3nc(NC(=O)N[C@@H](C)C(=O)N4CCN(C)CC4)nn23)cc1` [Example 123], for which the “EC20 (concentration necessary for suppressing 20% of the expression level of MHC class I molecules)” value turned out to be 480 nM.

`CCOCCCC(C)NC(=O)Nc1nc2nccc(-c3ccc(OC)cc3)n2n1` (stereo not shown) [Example 276]: the “EC20 (concentration necessary for suppressing 20% of the expression level of MHC class I molecules)” value was found to be 120 nM.

Turning to `CC(C)NC(=O)Nc1nc2nccc(-c3ccc(O)cc3)n2n1` [Example 053], the “EC20 (concentration necessary for suppressing 20% of the expression level of MHC class I molecules)” value was 370 nM.

`CC(=O)OC(C)(C)C(=O)N(C)CCC(C)NC(=O)Nc1nc2nccc(-c3cccs3)n2n1` (stereo not shown) [Example 299]: the “EC20 (concentration necessary for suppressing 20% of the expression level of MHC class I molecules)” value was 430 nM.

`COc1ccc(-c2ccnc3nc(NC(=O)NC4C5CC6CC(C5)CC4C6)nn23)cc1` (stereo not shown) [Example 143]: the “EC20 (concentration necessary for suppressing 20% of the expression level of MHC class I molecules)” value amounted to 740 nM.

On to `COc1cccc([C@H](C)NC(=O)Nc2nc3nccc(-c4cc(OC)c(OC)c(OC)c4)n3n2)c1` [Example 308], for which the “EC20 (concentration necessary for suppressing 20% of the expression level of MHC class I molecules)” value is 760 nM.

Turning to `CCCC(C)NC(=O)Nc1nc2nccc(-c3ccc(OCCOC)cc3)n2n1` (stereo not shown) [Example 286], the “EC20 (concentration necessary for suppressing 20% of the expression level of MHC class I molecules)” value came out at 160 nM.

For the compound `CNC(=O)Nc1nc2nccc(-c3ccc(OC)cc3)n2n1` [Example 026], the “EC20 (concentration necessary for suppressing 20% of the expression level of MHC class I molecules)” value turned out to be 900 nM.

As for `COc1ccc(-c2ccnc3nc(NC(=O)NC(C)c4ccc5c(c4)OCO5)nn23)cc1` (stereo not shown) [Example 297], the “EC20 (concentration necessary for suppressing 20% of the expression level of MHC class I molecules)” value turned out to be 110 nM.

Regarding `COc1ccc(-c2ccnc3nc(NC(=O)NC(C)CC(C)C)nn23)cc1` (racemic) [Example 235], the “EC20 (concentration necessary for suppressing 20% of the expression level of MHC class I molecules)” value was 590 nM.

On to `COc1ccc(-c2ccnc3nc(NC(=O)NCC(=O)OC(C)(C)C)nn23)cc1` [Example 110], for which the “EC20 (concentration necessary for suppressing 20% of the expression level of MHC class I molecules)” value amounted to 790 nM.

Take `CCC[C@H](NC(=O)Nc1nc2nccc(-c3ccc(OC)cc3)n2n1)C(=O)N1CCOCC1` [Example 152]: the “EC20 (concentration necessary for suppressing 20% of the expression level of MHC class I molecules)” value was determined as 780 nM.

Take `COc1cccc([C@H](C)NC(=O)Nc2nc3nccc(-c4cccc(OCCC5OCCCO5)c4)n3n2)c1` [Example 207]: the “EC20 (concentration necessary for suppressing 20% of the expression level of MHC class I molecules)” value is 60 nM.

For `CC(C)NC(=O)Nc1nc2nccc(-c3cccc(OCCc4ccccc4)c3)n2n1` [Example 180], the “EC20 (concentration necessary for suppressing 20% of the expression level of MHC class I molecules)” value turned out to be 350 nM.

Take `CC(C)NC(=O)Nc1nc2nccc(-c3cccc(OCCCc4ccccc4)c3)n2n1` [Example 194]: the “EC20 (concentration necessary for suppressing 20% of the expression level of MHC class I molecules)” value is 420 nM.

Regarding `O=C(NCc1ccccc1)Nc1nc2nccc(-c3cccc(O)c3)n2n1` [Example 025], the “EC20 (concentration necessary for suppressing 20% of the expression level of MHC class I molecules)” value was 500 nM.

Turning to `COc1ccc(-c2ccnc3nc(NC(=O)N[C@@H](C)C(=O)NCc4ccccn4)nn23)cc1` [Example 124], the “EC20 (concentration necessary for suppressing 20% of the expression level of MHC class I molecules)” value was 210 nM.

As to `COCCCC(C)NC(=O)Nc1nc2nccc(-c3cccs3)n2n1` (stereo not shown) [Example 315], the “EC20 (concentration necessary for suppressing 20% of the expression level of MHC class I molecules)” value was 270 nM.

For the compound `COc1ccc(-c2ccnc3nc(NC(=O)NC(C)CCN(C)C(=O)OC(C)(C)C)nn23)cc1` (stereo not shown) [Example 277], the “EC20 (concentration necessary for suppressing 20% of the expression level of MHC class I molecules)” value stood at 180 nM.

Consider `CC(C)NC(=O)Nc1nc2nccc(-c3cccc(OCc4ccccn4)c3)n2n1` [Example 185], for which the “EC20 (concentration necessary for suppressing 20% of the expression level of MHC class I molecules)” value is 350 nM.
